According to paper PMC2639596, “Antimicrobial peptides effectively kill a broad spectrum of Listeria monocytogenes and Staphylococcus aureus strains independently of origin, sub-type, or virulence factor expression” (BMC Microbiology, 2008):
Read-outs that look alike come from different tables or passages of the source.

Legend:
Listeria monocytogenes = settings: for MIC (MEC): radial diffusion, MHB/1% agarose, overnight, 37°C
Experimental: (§1) The MEC of HBD-3 was assayed on a sub-selection of strains using a radial diffusion assay with some modifications. In brief, MHB/1% agarose was supplemented with glucose to an end-concentration of 0.1% (w/V) to enhance the growth of L. monocytogenes and improve the visualization of the inhibition zones. […] Following solidification on a leveling table, 1 mm wells were punched with a Pasteur pipette. Two-fold dilutions of HBD-3 were prepared in 0.01% acetic acid/0.1% bovine serum albumin to a concentration range of 0.25–256 μg/ml and 2 μl was added to each well. […] Each strain was tested in two independent trials.
(§2) The bacteria were prepared and mixed with MHB/1% agarose as described above and 50 ml gel was poured into 140 mm Petri dishes. The gel was allowed to solidify and 3 mm wells were punched. […] The plates were incubated overnight at 37°C and the MEC was read as described above.

Staphylococcus aureus = settings: for MIC (MEC): radial diffusion, MHB/1% agarose, overnight, 37°C
Experimental: as §1, §2

OO [hydrogen peroxide]
0.12 % (V/V): MIC (MEC) (Listeria monocytogenes; strain 2307 (EGD resD del)) | MIC (MEC) (Staphylococcus aureus; strain ΔmprF (Sa113 mprF del))
0.18 % (V/V): MIC (MEC) (Listeria monocytogenes; strain 4666) | MIC (MEC) (Listeria monocytogenes; strain 7418)
0.23 % (V/V): MIC (MEC) (Listeria monocytogenes; strain 4239) | MIC (MEC) (Listeria monocytogenes; strain 4459) | MIC (MEC) (Listeria monocytogenes; strain La22) | MIC (MEC) (Staphylococcus aureus; strain ΔdltA (Sa113 dltA ins))
0.12–0.47 % (V/V): MEC values against S. aureus (range over strains) (Staphylococcus aureus)
0.47 % (V/V): MIC (MEC) (Listeria monocytogenes; strain 4446) | MIC (MEC) (Listeria monocytogenes; strain 7291) | MIC (MEC) (Listeria monocytogenes; strain EGD (wildtype)) | MIC (MEC) (Listeria monocytogenes; strain LO28 (wildtype)) | MIC (MEC) (Listeria monocytogenes; strain N53-1) | MIC (MEC) (Listeria monocytogenes; strain No40-1) | MIC (MEC) (Listeria monocytogenes; strain O57) | MIC (MEC) (Listeria monocytogenes; strain R479a)
0.94 % (V/V): MIC (MEC) (Listeria monocytogenes; strain 2275 (EGD dps del)) | MIC (MEC) (Listeria monocytogenes; strain 2315 (EGD sigB del)) | MIC (MEC) (Listeria monocytogenes; strain 2317 (EGD prfA del)) | MIC (MEC) (Listeria monocytogenes; strain 2374 (EGD perR ins)) | MIC (MEC) (Listeria monocytogenes; strain 2375 (EGD perR del)) | MIC (MEC) (Listeria monocytogenes; strain H13-1) | MIC (MEC) (Listeria monocytogenes; strain La111) | MIC (MEC) (Listeria monocytogenes; strain M103-1) | MIC (MEC) (Listeria monocytogenes; strain V518a)
0.35 % (V/V): MIC (MEC) (Listeria monocytogenes; strain 6895)
0.12–0.94 % (V/V): MEC values against L. monocytogenes (range over strains) (Listeria monocytogenes; radial diffusion assay, all strains tested)
